ChEMBL document CHEMBL6127055, “Discovery of the therapeutic potential of PPARδ agonist bearing 1,3,4- thiadiazole in inflammatory disorders” (Eur J Med Chem, 2024)

How the values were obtained:
[1] = molecular target: CYP2C19 (Homo sapiens, UniProt P33261); assay: Inhibition of CYP2C19 in human liver microsomes at 10 uM using S-mephenytoin 4-hydroxylase as substrate preincubated for 5 mins followed by NADPH regenerating system addition and measured after 15 mins by LC-MS/MS analysis relative to control; format: ADME, Microsome; conditions: probe S-mephenytoin (S-mephenytoin 4-hydroxylase), time 20 min
[2] = molecular target: T1, UGT1A1 (Homo sapiens, UniProt P22309); assay: Inhibition of UGT1A1 (unknown origin) at 10 uM relative to control
T1 sequence (P22309 whole entry): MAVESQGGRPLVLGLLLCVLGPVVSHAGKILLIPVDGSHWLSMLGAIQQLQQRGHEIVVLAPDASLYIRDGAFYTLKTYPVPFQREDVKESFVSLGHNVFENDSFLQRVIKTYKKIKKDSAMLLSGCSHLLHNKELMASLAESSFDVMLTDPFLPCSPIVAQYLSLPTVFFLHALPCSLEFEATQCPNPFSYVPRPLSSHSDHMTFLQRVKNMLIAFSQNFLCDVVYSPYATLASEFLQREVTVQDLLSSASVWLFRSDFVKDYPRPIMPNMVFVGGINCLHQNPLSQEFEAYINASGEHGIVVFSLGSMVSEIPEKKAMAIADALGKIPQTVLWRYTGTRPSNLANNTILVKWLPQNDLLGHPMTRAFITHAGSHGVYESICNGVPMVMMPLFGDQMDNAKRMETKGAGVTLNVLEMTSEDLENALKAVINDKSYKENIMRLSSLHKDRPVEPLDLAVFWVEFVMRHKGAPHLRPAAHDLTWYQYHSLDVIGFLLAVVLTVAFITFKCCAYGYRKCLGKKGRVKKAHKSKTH

[3] = Protein binding in human plasma; format: ADME, cell-free; conditions: read-out: PPB (converted)
[4] = Protein binding in rat plasma; format: ADME, cell-free; conditions: read-out: PPB (converted)
[5] = Apparent permeability across basolateral to apical side in human Caco-2 cells at 10 uM incubated for 5 hrs by LC-MS/MS method; format: ADME, cell-based

Chain of CYP2C19 (P33261 whole entry): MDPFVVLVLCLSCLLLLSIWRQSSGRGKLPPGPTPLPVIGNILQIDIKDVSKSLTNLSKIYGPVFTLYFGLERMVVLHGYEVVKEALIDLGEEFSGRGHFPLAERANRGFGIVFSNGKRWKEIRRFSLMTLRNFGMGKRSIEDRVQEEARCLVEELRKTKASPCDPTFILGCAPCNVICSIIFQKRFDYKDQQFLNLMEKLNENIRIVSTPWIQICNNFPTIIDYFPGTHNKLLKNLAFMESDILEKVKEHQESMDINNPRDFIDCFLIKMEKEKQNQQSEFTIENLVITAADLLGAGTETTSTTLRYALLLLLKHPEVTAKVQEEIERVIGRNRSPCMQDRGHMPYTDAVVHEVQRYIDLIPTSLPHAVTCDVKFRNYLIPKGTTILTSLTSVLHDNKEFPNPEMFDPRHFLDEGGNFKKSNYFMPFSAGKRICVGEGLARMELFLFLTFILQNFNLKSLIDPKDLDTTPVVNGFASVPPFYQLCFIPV

inhibition at 0.25 h, 10 µM [1]: 0%
inhibition at 10 µM [2]: 13.9%
fraction unbound [3]: 0.003
fraction unbound [4]: 0.002
Papp B→A at 5 h, 10 µM [5]: 0.224 ×10⁻⁶ cm/s
Compound: Cc1cc(SCc2nnc(-c3ccc(C(F)(F)F)cc3)s2)ccc1OCC(=O)O
